≈ marks a conversion by molar mass, not a printed value. Where two headings read alike, the source gives them in different places.
What was measured:
Sindbis virus = experiment: Antiviral activity, Sindbis virus; format: cell-based; conditions: Table 3, reference compounds
Coxsackie virus B4 = experiment: microbe, parasite or virus in culture; format: cell-based; conditions: Table 3, reference compounds
Punta Toro virus = experiment: Antiviral activity, Punta Toro virus; format: cell-based; conditions: Table 3, reference compounds
Influenza A H1N1 subtype = experiment: Anti-influenza activity in MDCK cells, Influenza A H1N1; format: cell-based; conditions: for EC50 Influenza A H1N1 subtype MTS: cell viability, formazan-based MTS assay; for EC50 Influenza A H1N1 subtype visual CPE score: visual scoring of the CPE; for EC50: reference compounds
Description: (§1) MDCK cells (Madin Darby canine kidney cells) have been used for the experiments shown in table 5 using standard procedures known in the art.

Influenza A H3N2 subtype = experiment: Anti-influenza activity in MDCK cells, Influenza A H3N2; format: cell-based; conditions: for EC50 Influenza A H3N2 subtype MTS: cell viability, formazan-based MTS assay; for EC50 Influenza A H3N2 subtype visual CPE score: visual scoring of the CPE; for EC50: reference compounds
Description: as §1

Influenza B = experiment: Anti-influenza activity in MDCK cells, Influenza B; format: cell-based; conditions: for EC50 Influenza B MTS: cell viability, formazan-based MTS assay; for EC50 Influenza B visual CPE score: visual scoring of the CPE; for EC50: reference compounds
HIV-1 [1] = conditions: Table 1a
HIV-2 = experiment: Antiretrovirus assay, HIV-2; conditions: for EC50 HIV-2: Table 1a
Feline Corona virus = experiment: Activity on feline corona virus in CRFK cells; format: cell-based
CRFK cells [2] = conditions: cytotoxicity, feline corona virus test
[3] = system: Herpes simplex virus-1 (KOS); experiment: Antiviral activity, Herpes simplex virus-1 (KOS); format: cell-based; conditions: Human alphaherpesvirus 1; Table 4, reference compounds
[4] = system: Herpes simples virus-2 (G); experiment: Antiviral activity, Herpes simplex virus-2 (G); format: cell-based; conditions: Human alphaherpesvirus 2; Table 4, reference compounds
Vaccinia virus = experiment: microbe, parasite or virus in culture; format: cell-based; conditions: Orthopoxvirus vaccinia, read-out: EC50 Vaccinia virus
[5] = system: Vesicular stomatitis virus; experiment: microbe, parasite or virus in culture; format: cell-based; conditions: read-out: EC50 Vesicular stomatitis virus
[6] = system: Herpes simplex virus-1 TK KOS-ACV^r; experiment: Antiviral activity, Herpes simplex virus-1 TK KOS-ACVr; format: cell-based; conditions: Human alphaherpesvirus 1, read-out: EC50 Herpes simplex virus-1 TK KOS-ACV^r
[7] = system: human corona (SARS) virus; experiment: microbe, parasite or virus in culture; format: cell-based
CRFK cells [8] = conditions: cytotoxicity, human corona virus test
in vitro = conditions: human, CEM cells
HIV-1 [9] = experiment: microbe, parasite or virus in culture; conditions: Human immunodeficiency virus 1, CCRF-CEM, read-out: EC50 HIV-1

Compound: Nc1ncnc2c1ncn2C[C@H](O)CO [(S)-DHPA]
- EC50 (Sindbis virus): > 250 µM
- EC50 (Coxsackie virus B4): > 250 µM
- EC50 (Punta Toro virus): > 250 µM

Compound: CCc1c(CNc2cccc(C(C)=NO)c2)c(CC)c(CNc2cc(C)cc(C)n2)c(CC)c1CNc1cc(C)cc(C)n1 [ABT5]
- EC50 Influenza A H1N1 subtype MTS (Influenza A H1N1 subtype): >4 µg/mL
- EC50 Influenza A H1N1 subtype visual CPE score (Influenza A H1N1 subtype): >4 µg/mL
- EC50 Influenza A H3N2 subtype MTS (Influenza A H3N2 subtype): >4 µg/mL
- EC50 Influenza A H3N2 subtype visual CPE score (Influenza A H3N2 subtype): >4 µg/mL
- EC50 Influenza B MTS (Influenza B): >4 µg/mL
- EC50 Influenza B visual CPE score (Influenza B): >4 µg/mL

Compound: CCc1c(CNc2cccc(CO)c2)c(CC)c(CNc2cc(C)cc(C)n2)c(CC)c1CNc1cc(C)cc(C)n1 [ABT6]
- EC50 HIV-1 (HIV-1 [1]): >2 µg/mL
- EC50 HIV-2 (HIV-2): >2 µg/mL

Compound: CCOC(=O)CNc1cccc(NCc2c(CC)c(CNc3cccc(C)n3)c(CC)c(CNc3cccc(C)n3)c2CC)n1 [AH29]
- Feline Corona virus EC50 (Feline Corona virus): >4 µg/mL
- Feline Corona virus CC50 (CRFK cells [2]): 13.3 µg/mL

Compound: CCc1c(CNc2cccc(C)n2)c(CC)c(CNc2cccc(NC(=O)Cc3ccccc3)n2)c(CC)c1CNc1cccc(C)n1 [AH30]
- EC50 Influenza A H1N1 subtype MTS (Influenza A H1N1 subtype): >4 µg/mL
- EC50 Influenza A H1N1 subtype visual CPE score (Influenza A H1N1 subtype): >4 µg/mL
- EC50 Influenza A H3N2 subtype MTS (Influenza A H3N2 subtype): >4 µg/mL
- EC50 Influenza A H3N2 subtype visual CPE score (Influenza A H3N2 subtype): >4 µg/mL
- EC50 Influenza B MTS (Influenza B): >4 µg/mL
- EC50 Influenza B visual CPE score (Influenza B): >4 µg/mL

Compound: Nc1nc2c(ncn2COCCO)c(=O)[nH]1 [Acyclovir]
- EC50 [3]: 0.4 µM
- EC50 [4]: 0.08 µM
- EC50 (Vaccinia virus): > 250 µM
- EC50 [5]: > 250 µM
- EC50 [6]: 150 µM

Compound: NC12CC3CC(CC(C3)C1)C2 [Amantadin, reference compound]
- EC50 (Influenza A H1N1 subtype; MTS, read-out: EC50 Influenza A H1N1 subtype MTS): 59.3 µM
- EC50 (Influenza A H1N1 subtype; visual CPE, read-out: EC50 Influenza A H1N1 subtype visual CPE score): 58.5 µM
- EC50 (Influenza A H3N2 subtype; MTS, read-out: EC50 Influenza A H3N2 subtype MTS): 1.6 µM
- EC50 (Influenza A H3N2 subtype; visual CPE, read-out: EC50 Influenza A H3N2 subtype visual CPE score): 4 µM
- EC50 (Influenza B; MTS, read-out: EC50 Influenza B MTS): > 100 µM
- EC50 (Influenza B; visual CPE, read-out: EC50 Influenza B visual CPE score): > 100 µM

Compound: CCc1c(CNCC2COCCOCCOCCOCCO2)c(CC)c(CNc2cc(C)cc(C)n2)c(CC)c1CNc1cc(C)cc(C)n1 (centres unmarked) [Co12]
- Feline Corona virus EC50 (Feline Corona virus): 1.4 ± 0.2 µg/mL
- Human Corona virus EC50 ([7]; human corona (SARS) virus): 1.9 ± 0.6 µg/mL
- EC50 HIV-1 (HIV-1 [1]): 1.35 ± 0.29 µg/mL (≈ 1.95 µM)
- Feline Corona virus CC50 (CRFK cells [2]): 11 ± 0 µg/mL
- Human Corona virus CC50 (CRFK cells [8]): 13 ± 1.2 µg/mL
- EC50 HIV-2 (HIV-2): >4 µg/mL

Compound: CCc1c(CC#N)c(CC)c(CNc2cc(C)cc(C)n2)c(CC)c1CNc1cc(C)cc(C)n1 [Co19]
- Feline Corona virus EC50 (Feline Corona virus): >4 µg/mL
- EC50 HIV-1 (HIV-1 [1]): >2 µg/mL
- Feline Corona virus CC50 (CRFK cells [2]): 10.8 µg/mL
- EC50 HIV-2 (HIV-2): >2 µg/mL

Compound: CCc1c(CN)c(CC)c(CNc2cc(C)cc(C)n2)c(CC)c1CNc1cc(C)cc(C)n1.Cl [Co28]
- EC50 Influenza A H1N1 subtype MTS (Influenza A H1N1 subtype): >0.8 µg/mL
- EC50 Influenza A H1N1 subtype visual CPE score (Influenza A H1N1 subtype): >0.8 µg/mL
- EC50 Influenza A H3N2 subtype MTS (Influenza A H3N2 subtype): >0.8 µg/mL
- EC50 Influenza A H3N2 subtype visual CPE score (Influenza A H3N2 subtype): >0.8 µg/mL
- EC50 Influenza B MTS (Influenza B): >0.8 µg/mL
- EC50 Influenza B visual CPE score (Influenza B): >0.8 µg/mL

Compound: CCc1c(CNc2cc(C)cc(C)n2)c(CC)c(CNc2ccc3ccc(C)nc3n2)c(CC)c1CNc1cc(C)cc(C)n1 [Co50]
- EC50 HIV-1 (HIV-1 [1]): >2 µg/mL
- EC50 HIV-2 (HIV-2): >2 µg/mL

Compound: CCc1c(CNc2cc(C)cc(C)n2)c(CC)c(CNc2ccc3ccc(C)nc3n2)c(CC)c1CNc1ccc2ccc(C)nc2n1 [Co54]
- EC50 HIV-1 (HIV-1 [1]): >2 µg/mL
- EC50 HIV-2 (HIV-2): >2 µg/mL

Compound: Cc1cc(C)nc(NCc2c(C)c(CNc3cc(C)cc(C)n3)c(C)c(CNc3cc(C)cc(C)n3)c2C)c1 [Compound 3a, 1,3,5-Tris[(4,6-dimethyl-pyridin-2-yl)aminomethyl]-2,4,6-trimethyl-benzene]
- EC50 (Feline Corona virus): 0.8 ± 0.6 µg/mL (≈ 1.53 µM)
- EC50 ([7]; Severe acute respiratory syndrome coronavirus, read-out: Human Corona virus EC50): 1.3 ± 0.2 µg/mL (≈ 2.49 µM)
- melting point: 193 to 195 °C
- CC50 (in vitro): 2.63 ± 0.08 µg/mL (≈ 5.03 µM)
- EC50 (HIV-2; Human immunodeficiency virus 2, read-out: EC50 HIV-2): > 0.8 µg/mL
- EC50 (HIV-1 [9]): > 0.8 µg/mL

Source: patent publication US8450318B2 (priority 2007, dated 2013)
